What was measured:
Bcl-xL (GST-Bcl-xL) [1] = target: T1, Bcl-xL (GST-Bcl-xL) (Homo sapiens, UniProt Q07817); assay: TR-FRET binding assay, competition with F-Bak for the Bcl-xL binding site; conditions: values listed in the order of Table 1, read-out: TR-FRET assay results (Ki), Bcl-xL
Bcl-xL (GST-Bcl-xL) [2] = target: T1, Bcl-xL (GST-Bcl-xL); assay: AlphaScreen Bcl-xL binding assay, competition with biotinylated Bim peptide; design: made in house; conditions: values listed in the order of Table 1; read-out: Alphascreen results (IC50) against the Bcl-xL protein
Text: The measurement of competition of compounds of the invention with Bim26-mer for a Bcl-2 family protein binding site using an Alpha Screen Bcl-xL binding assay:
The BH3 proteins AlphaScreen™ assay was used to identify active small molecules Bcl-2 family protein screen, e.g., Bcl-xL, hmMcl-1 screen.
The beads come in close proximity when the protein and the peptides interact. Donor beads contain a photosensitiser that converts oxygen to an excited form of O2 at an excitation of 680 nm. Energy is transformed from the singlet oxygen and reacts with chemiluminescers on the acceptor bead, resulting in light emission at 520-620 nm. […] With this information, the IC50 of each compound was calculated
GST-Bcl-xL, GST-hmMcl-1 and biotinylated GST proteins were prepared in-house and were stored as stock solutions at −80° C. The biotinylated-Bak, and biotinylated-Bim peptides were purchased from Auspep and were stored as 500 μM stock solutions in 100% DMSO at −80° C. […] DMSO was purchased from AnalaR.
Compounds of the invention were prepared as 10 mM stocks with 100% DMSO on the day prior to performing the assay. […] To achieve a final compound concentration of 1 μM, in a separate matrical plate, 28 μL of 100% DMSO and 2 μL of 10 mM compound was added to a well, mixed well, 2 μL of this solution was taken and added to 38 μL of 100% DMSO. 20 μL of this solution was added to the test matrical plate. Several control compounds were included in the test plates. For the control wells 15 μL 100% DMSO only was added to the appropriate wells of each plate. The compound plates were then serially diluted 2 fold using the MiniTrak. Once titrations were complete, the compound plate was immediately covered with a foil seal to prevent evaporation.
The assay and bead buffers were prepared fresh. Each titrated compound plate was assayed in duplicate. The following volumes were sufficient to run 12 Proxiplates (4 assay plates run in duplicate in each of Bclxl, hmMcl and counter assays)
Protein and Peptide Preparation; and Assay Performance • 1. The assay and bead buffers were used to prepare the acceptor and donor solutions. ALPHASCREEN™ beads are light sensitive and therefore prepared in a darkened room. 2.5 μL of beads were added per 1 mL of buffer. • 2. The volume of protein or peptide to add was calculated using the following formula:
V2=Volume of stock protein/Peptide to add to Acceptor/Donor solution • 3. The assay components were prepared as separate Acceptor and Donor Solutions. The Acceptor Solution contained Acceptor beads and target protein, while the Donor Solution contained Donor beads and biotinylated peptide.
• 4. After the solutions were prepared, they were left to incubate for 30 minutes at room temperature to allow the beads to bind to the protein and the peptide. • 5. 50 μL of Bcl-xL solution, 50 μL of hmMcl-1 solution and 50 μL of biotinylated-GST were added into separate deep wells on an assay plate. A control 50 μL Assay/Bead buffer was added separate well plates (no protein). • 6. 50 μL of Bim solution and 50 μL of Bak solution were added into separate deep well plates. • 7. Transfer 0.3 μL it of sample from the compound plate into each assay plate. • 8. Incubated for 30 mins at RT, then add 5 μL of the Donor solution. After addition of the Donor solution, tapped plates gently and sealed individually with adhesive film. • 9.
The percent inhibition was calculated using the following equation:
[formula] • x=RFU obtained after compound treatment • μ^−=RFU obtained for the negative controls (no protein controls) • μ^+=RFU obtained for the positive controls (DMSO vehicle controls)

T1 sequence (Q07817 whole entry, species assumed): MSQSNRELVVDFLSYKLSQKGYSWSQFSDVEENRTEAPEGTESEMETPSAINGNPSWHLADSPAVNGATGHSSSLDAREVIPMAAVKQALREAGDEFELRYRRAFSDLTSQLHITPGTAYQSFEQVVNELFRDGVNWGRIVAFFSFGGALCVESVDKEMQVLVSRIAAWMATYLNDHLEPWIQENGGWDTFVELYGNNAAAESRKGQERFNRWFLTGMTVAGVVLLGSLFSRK

Row | Compound | Ki (Bcl-xL (GST-Bcl-xL) [1]) | IC50 (Bcl-xL (GST-Bcl-xL) [2])
1 | O=C(Nc1nc2ccccc2s1)c1cccc2c1CN(c1nc(C(=O)O)c(C#CCO)s1)CC2 [Example 14, 2-(8-(Benzo[d]thiazol-2-ylcarbamoyl)-3,4-dihydroisoquinolin-2(1H)-yl)-5-(3-hydroxyprop-1-ynyl)thiazole-4-carboxylic acid] | 6 nM | 20 nM
2 | CC(C)(C)OC(=O)Nc1ccc(OCCCc2sc(N3CCc4cccc(C(=O)Nc5nc6ccccc6s5)c4C3)nc2C(=O)O)cc1 [Example 4, 2-(8-(benzo[d]thiazol-2-ylcarbamoyl)-3,4-dihydroisoquinolin-2(1H)-yl)-5-(3-(4-(tert-butoxycarbonylamino)phenoxy)propyl)thiazole-4-carboxylic acid] | 0.3 nM | 0.8 nM
3 | O=C(Nc1nc2ccccc2s1)c1cccc2c1CN(c1nc(C(=O)O)c(CCCSc3ccncc3)s1)CC2 [Example 3, 2-(8-(benzo[d]thiazol-2-ylcarbamoyl)-3,4-dihydroisoquinolin-2(1H)-yl)-5-(3-(pyridin-4-ylthio)propyl)thiazole-4-carboxylic acid] | 0.2 nM | 1 nM
4 | O=C(Nc1nc2ccccc2s1)c1cccc2c1CN(c1nc(C(=O)O)c(CN3CCC(c4ccccc4)CC3)s1)CC2 [Example 63, 2-(8-(benzo[d]thiazol-2-ylcarbamoyl)-3,4-dihydroisoquinolin-2(1H)-yl)-5-((4-phenylpiperidin-1-yl)methyl)thiazole-4-carboxylic acid] | 248 nM | 574 nM
5 | CN(C)CCOc1cnc(-c2ccc(OCCCc3ccc(N4CCc5cccc(C(=O)Nc6nc7ccccc7s6)c5C4)nc3C(=O)O)cc2)nc1 [Example 112, 6-(8-(benzo[d]thiazol-2-ylcarbamoyl)-3,4-dihydroisoquinolin-2(1H)-yl)-3-(3-(4-(5-(2-(dimethylamino)ethoxy)pyrimidin-2-yl)phenoxy)propyl)picolinic acid] | 0.2 nM | 0.45 nM
6 | N#CC1Cc2cc(OCCCc3sc(N4CCc5cccc(C(=O)Nc6nc7ccccc7s6)c5C4)nc3C(=O)O)ccc21 (stereo not shown) [Example 25, 2-(8-(benzo[d]thiazol-2-ylcarbamoyl)-3,4-dihydroisoquinolin-2(1H)-yl)-5-(3-(1-cyano-1,2-dihydrocyclobutabenzen-4-yloxy)propyl)thiazole-4-carboxylic acid] | 0.3 nM | 0.9 nM
7 | O=C(Nc1nc2ccccc2s1)c1cccc2c1CN(c1ccc(CCc3ccccc3)c(C(=O)O)n1)CC2 [Compound 127, 6-(8-(benzo[d]thiazol-2-ylcarbamoyl)-3,4-dihydroisoquinolin-2(1H)-yl)-3-phenethylpicolinic acid] | 660 nM | 598 nM
8 | N#Cc1c(-c2ccc(OCc3sc(N4CCc5cccc(C(=O)Nc6nc7ccccc7s6)c5C4)nc3C(=O)O)cc2)n[nH]c1N [Example 45, 5-((4-(5-amino-4-cyano-1H-pyrazol-3-yl)phenoxy)methyl)-2-(8-(benzo[d]thiazol-2-ylcarbamoyl)-3,4-dihydroisoquinolin-2(1H)-yl)thiazole-4-carboxylic acid] | 1 nM | 4 nM
9 | CN(C)CCOc1cccc(OCCCc2ccc(N3CCc4cccc(C(=O)Nc5nc6ccccc6s5)c4C3)nc2C(=O)O)c1 [Example 113, 6-(8-(benzo[d]thiazol-2-ylcarbamoyl)-3,4-dihydroisoquinolin-2(1H)-yl)-3-(3-(3-(2-(dimethylamino)ethoxy)phenoxy)propyl)picolinic acid] | 0.2 nM | 0.9 nM
10 | CN(C)CC#Cc1ccc(OCCCc2sc(N3CCc4cccc(C(=O)Nc5nc6ccccc6s5)c4C3)nc2C(=O)O)cc1F [Example 117, 2-(8-(benzo[d]thiazol-2-ylcarbamoyl)-3,4-dihydroisoquinolin-2(1H)-yl)-5-(3-(4-(3-(dimethylamino)prop-1-ynyl)-3-fluorophenoxy)propyl)thiazole-4-carboxylic acid] | 3 nM | 17 nM
11 | CN(C)CC#Cc1ccc(OCCCc2ccc(N3CCc4cccc(C(=O)Nc5nc6ccccc6s5)c4C3)nc2C(=O)O)cc1 [Compound 133, 6-(8-(benzo[d]thiazol-2-ylcarbamoyl)-3,4-dihydroisoquinolin-2(1H)-yl)-3-(3-(4-(3-(dimethylamino)prop-1-ynyl)phenoxy)propyl)picolinic acid] | 0.023 nM | 1.2 nM
12 | CN1CCC(Nc2ccc(OCCCc3ccc(N4CCc5cccc(C(=O)Nc6nc7ccccc7s6)c5C4)nc3C(=O)O)cc2)CC1 [Example 104, 6-(8-(Benzo[d]thiazol-2-ylcarbamoyl)-3,4-dihydroisoquinolin-2(1H)-yl)-3-(3-(4-(1-methylpiperidin-4-ylamino)phenoxy)propyl)picolinic acid] | 1 nM | 9.6 nM
13 | CC(C)(C)OC(=O)Nc1cccc(OCCCc2sc(N3CCc4cccc(C(=O)Nc5nc6ccccc6s5)c4C3)nc2C(=O)O)c1 [Example 5, 2-(8-(benzo[d]thiazol-2-ylcarbamoyl)-3,4-dihydroisoquinolin-2(1H)-yl)-5-(3-(3-(tert-butoxycarbonylamino)phenoxy)propyl)thiazole-4-carboxylic acid] | 1 nM | 2 nM
14 | N#Cc1c(-c2ccc(O)cc2)n[nH]c1NCCCc1sc(N2CCc3cccc(C(=O)Nc4nc5ccccc5s4)c3C2)nc1C(=O)O [Example 32, 2-(8-(benzo[d]thiazol-2-ylcarbamoyl)-3,4-dihydroisoquinolin-2(1H)-yl)-5-(3-(4-cyano-3-(4-hydroxyphenyl)-1H-pyrazol-5-ylamino)propyl)thiazole-4-carboxylic acid] | 17 nM | 50 nM
15 | CN1CCN(C(=O)c2ccc(OCCCc3ccc(N4CCc5cccc(C(=O)Nc6nc7ccccc7s6)c5C4)nc3C(=O)O)cc2)CC1 [Example 98, 6-(8-(benzo[d]thiazol-2-ylcarbamoyl)-3,4-dihydroisoquinolin-2(1H)-yl)-3-(3-(4-(4-methylpiperazine-1-carbonyl)phenoxy)propyl)picolinic acid] | 10 nM | 140 nM
16 | O=C(Nc1nc2ccccc2s1)c1cccc2c1CN(c1ccc(CCCOc3ccnc(Cl)c3)c(C(=O)O)n1)CC2 [Example 109] | 0.6 nM | 10.6 nM
17 | O=C(Nc1nc2ccccc2s1)c1cccc2c1CN(c1nc(C(=O)O)c(CCCn3cnc4ccccc43)s1)CC2 [Example 15, 5-(3-(1H-benzo[d]imidazol-1-yl)propyl)-2-(8-(benzo[d]thiazol-2-ylcarbamoyl)-3,4-dihydroisoquinolin-2(1H)-yl)thiazole-4-carboxylic acid] | 3 nM | 10 nM
18 | O=C(Nc1nc2ccccc2s1)c1cccc2c1CN(c1nc(C(=O)O)c(CCCn3cccn3)s1)CC2 [Example 7, 5-(3-(1H-pyrazol-1-yl)propyl)-2-(8-(benzo[d]thiazol-2-ylcarbamoyl)-3,4-dihydroisoquinolin-2(1H)-yl)thiazole-4-carboxylic acid] | 7 nM | 25 nM
19 | O=C(Nc1nc2ccccc2s1)c1cccc2c1CN(c1nc(C(=O)O)c(CCCOc3ccncc3)s1)CC2 [Example 10, 2-(8-(benzo[d]thiazol-2-ylcarbamoyl)-3,4-dihydroisoquinolin-2(1H)-yl)-5-(3-(pyridin-4-yloxy)propyl)thiazole-4-carboxylic acid] | 0.1 nM | 1 nM
20 | CN(C)CC#Cc1ccc(OCCCc2sc(N3CCc4cccc(C(=O)Nc5nc6ccccc6s5)c4C3)nc2C(=O)O)c(F)c1 [Example 116, 2-(8-(benzo[d]thiazol-2-ylcarbamoyl)-3,4-dihydroisoquinolin-2(1H)-yl)-5-(3-(4-(3-(dimethylamino)prop-1-ynyl)-2-fluorophenoxy)propyl)thiazole-4-carboxylic acid] | 0.004 nM | 0.2 nM

From patent publication US8232273B2, “Heterocyclic compounds and methods of use” (Genentech, Inc., priority 2008, dated 2012)
